According to patent EP4585587A1, “PROPIONIC ACID DERIVATIVE AND USE THEREOF IN MEDICINE” (priority 2022, dated 2024):
pIC50: −log10 of the molar value. Structures can show the parent of a compound that is named as a salt.

Tests used:
integrin α4β1 = test: Integrin α4β1-mediated cell adhesion assay (Jurkat cells on VCAM); type: cell-based; conditions: for pIC50: Jurkat cells, VCAM coated plate, read-out: Jurkat (α4β1)/VCAM-1 IC50; for α4β1/α4β7: selectivity ratio of Jurkat (α4β1)/VCAM-1 IC50 to RPMI-8866 (α4β7)/MadCAM-1 IC50
Method: VCAM was formulated into a final concentration of 0.5 µg/ml with a coating buffer, 50 µl of the solution was transferred to a 96-well plate, and the plate was coated with same at 4°C overnight. The plate was washed with coating buffer three times, then 150 µl of a blocking solution (coating buffer containing 1% BSA) was added, and the plate was blocked at 37°C for 1 h. Jurkat cells were collected, washed twice using DPBS buffer, and then resuspended to 4 × 10^6 cells/ml with an action buffer. 50 µl of the cell suspension was transferred to a 96-well plate so that the cell density reached 2 × 10^5 cells/well. Then 1 µl of the test compound at different concentration or DMSO was added and the plate was incubated at 37°C for 1 h. The plate was washed with coating buffer to remove non-adherent cells. 50 µl of a substrate (4-nitrophenyl-N-acetyl-β-D-glucosaminide) was added and the plate was incubated at 37°C for 2 h. Finally, 90 µl of a termination solution (50 mM glycine and 5 mM EDTA, pH 10.4) was added. The OD value of the plate was read at 405 nm. • Coating buffer: DMEM+ 20 mM HEPES+ 0.4 mM MnCl2 • Action buffer: DMEM+ 20 mM HEPES+ 0.1% BSA+0.4 mM MnCl2 • DMEM: dulbecco's modified eagle medium; • HEPES: 2-[4-(2-hydroxyethyl)piperazin-1-yl]ethanesulfonic acid Table 1 Results of effects of compounds on α4β7- and α4β1-mediated cell adhesion

integrin α4β7 = target: T1, integrin α4β7 (Homo sapiens, UniProt P13612+P26010); test: Integrin α4β7 cell adhesion assay (RPMI8866 cells on MAdCAM-1); type: cell-based; conditions: RPMI8866 cells, MAdCAM-1 coated plate; numeric value or bound; read-out: RPMI-8866 (α4β7)/MadCAM-1 IC50
T1 sequence (P13612 34-1032): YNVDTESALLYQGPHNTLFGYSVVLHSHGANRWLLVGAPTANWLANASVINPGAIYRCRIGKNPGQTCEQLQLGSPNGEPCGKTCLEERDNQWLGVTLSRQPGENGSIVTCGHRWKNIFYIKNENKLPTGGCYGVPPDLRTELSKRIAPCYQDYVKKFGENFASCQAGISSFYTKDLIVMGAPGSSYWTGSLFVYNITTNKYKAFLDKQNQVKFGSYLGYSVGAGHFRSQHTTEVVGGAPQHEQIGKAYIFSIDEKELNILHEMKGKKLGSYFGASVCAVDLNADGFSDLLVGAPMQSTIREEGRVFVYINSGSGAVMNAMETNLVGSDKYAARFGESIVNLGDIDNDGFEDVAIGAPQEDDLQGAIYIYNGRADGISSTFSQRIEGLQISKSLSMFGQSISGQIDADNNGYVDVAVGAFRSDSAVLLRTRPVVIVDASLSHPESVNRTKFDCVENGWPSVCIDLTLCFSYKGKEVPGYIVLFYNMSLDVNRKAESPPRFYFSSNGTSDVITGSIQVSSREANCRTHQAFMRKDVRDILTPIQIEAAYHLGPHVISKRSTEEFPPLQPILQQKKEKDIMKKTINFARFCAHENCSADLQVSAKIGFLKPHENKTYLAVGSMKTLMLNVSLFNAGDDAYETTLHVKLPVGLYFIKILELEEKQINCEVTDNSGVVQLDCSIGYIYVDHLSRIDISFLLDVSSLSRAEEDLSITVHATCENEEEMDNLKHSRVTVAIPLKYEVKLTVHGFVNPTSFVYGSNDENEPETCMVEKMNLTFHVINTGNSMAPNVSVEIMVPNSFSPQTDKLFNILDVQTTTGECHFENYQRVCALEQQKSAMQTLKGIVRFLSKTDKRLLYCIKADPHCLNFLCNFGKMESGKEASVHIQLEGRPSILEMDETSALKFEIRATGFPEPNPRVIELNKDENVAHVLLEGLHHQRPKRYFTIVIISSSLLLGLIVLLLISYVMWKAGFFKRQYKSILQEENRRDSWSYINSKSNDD
T1 sequence (P26010 20-798): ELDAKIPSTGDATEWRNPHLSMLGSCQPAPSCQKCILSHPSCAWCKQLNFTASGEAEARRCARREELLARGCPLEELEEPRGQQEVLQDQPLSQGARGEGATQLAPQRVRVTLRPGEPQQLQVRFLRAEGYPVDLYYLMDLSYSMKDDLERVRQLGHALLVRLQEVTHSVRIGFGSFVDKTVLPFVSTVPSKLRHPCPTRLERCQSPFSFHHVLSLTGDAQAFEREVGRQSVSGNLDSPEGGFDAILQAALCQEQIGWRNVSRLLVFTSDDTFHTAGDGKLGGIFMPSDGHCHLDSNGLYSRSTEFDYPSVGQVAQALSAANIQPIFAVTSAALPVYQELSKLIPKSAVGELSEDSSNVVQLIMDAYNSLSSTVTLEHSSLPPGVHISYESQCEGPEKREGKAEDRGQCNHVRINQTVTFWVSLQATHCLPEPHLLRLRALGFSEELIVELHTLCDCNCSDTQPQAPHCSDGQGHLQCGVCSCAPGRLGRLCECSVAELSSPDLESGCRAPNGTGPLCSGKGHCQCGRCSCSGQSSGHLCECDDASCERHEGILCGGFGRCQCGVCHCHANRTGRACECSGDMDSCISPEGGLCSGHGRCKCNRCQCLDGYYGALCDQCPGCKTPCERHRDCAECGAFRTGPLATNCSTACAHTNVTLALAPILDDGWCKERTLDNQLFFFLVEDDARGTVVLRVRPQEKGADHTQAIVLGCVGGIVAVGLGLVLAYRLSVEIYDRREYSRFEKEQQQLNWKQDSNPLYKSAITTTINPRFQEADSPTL
Method: MAdCAM-1 was formulated with TBS buffer to a final concentration of 2 µg/ml, 50 µl of the solution was transferred to a 96-well plate, and the plate was coated with same at 4°C overnight. The plate was washed with TBS buffer three times, then 150 µl of a blocking solution (TBS buffer containing 1% BSA) was added, and the plate was blocked at 37°C for 1 h. […] 50 µl of the cell suspension was transferred to a 96-well plate so that the cell density reached 2×10^5 cells/well. Then 1 µl of the compound at different concentrations or DMSO was added and the plate was incubated at 37°C for 1 h or 2 h. The plate was washed with TBS buffer to remove non-adherent cells. 50 µl of a substrate (4-nitrophenyl-N-acetyl-β-D-glucosaminide) was added and the plate was incubated at 37°C for 2 h. […] The IC50 value was calculated using GraphPad Prism 6 software.

[1] = Test of stability in liver microsomes; type: in vitro ADME; conditions: Rat liver microsomes, 1 µM, 37°C, NADPH
[2] = Test of stability in liver microsomes; type: in vitro ADME, mouse; conditions: Mice liver microsomes, 1 µM, 37°C, NADPH
[3] = Test of stability in liver microsomes; type: in vitro ADME; conditions: Monkey liver microsomes, 1 µM, 37°C, NADPH
[4] = Pharmacokinetic test in mice; type: in vivo; conditions: male BALB/c mice, plasma
Method: Experimental animals: male BALB/c mice, 20-25 g, 6 mice/compound. purchased from Chengdu Ddossy Experimental Animals Co., Ltd.
Experimental design: on the day of the test, 6 BALB/c mice were randomly grouped according to their body weights. The animals were fasted with water available for 12 to 14 h one day before the administration and were fed 4 h after the administration. Table 2. Administration information
Before and after the administration, 0.06 mL of blood was taken from the orbit of the animals under isoflurane anesthesia and placed in an EDTAK2 centrifuge tube. The blood was centrifuged at 5000 rpm and 4°C for 10 min to collect plasma. The blood collection time points for the intravenous group and intragastric group were both 0 min, 5 min, 15 min, 30 min, 1 h, 2 h, 4 h, 6 h, 8 h, and 24 h. Before analysis and detection, all samples were stored at -80°C, and the samples were quantitatively analyzed by LC-MS/MS.

pIC50 (integrin α4β1)	pIC50 (integrin α4β7)	Structure (SMILES)	α4β1/α4β7 (integrin α4β1)	Test compound after 1h incubation Remaining% (T=60min) [1]	Test compound after 1h incubation Remaining% (T=60min) [2]	Test compound after 1h incubation Remaining% (T=60min) [3]	CL ([4]; IV: 1 mg/kg)	AUC ([4]; PO: 10 mg/kg)
< 7.00	> 9.00	Cc1cc(F)cc(C)c1-c1cc(C(CC(=O)O)NC(=O)[C@H](CC(C)C)n2cc(CC3CN(CC4CC4)C3)c(C(F)(F)F)cc2=O)cc2c1CCC2 (stereo partly drawn) [Trifluoroacetate salt of compound 15-2]	272					
		Cc1cc(-c2c(C)cc(F)cc2C)cc([C@H](CC(=O)O)NC(=O)[C@H](CC(C)C)n2cc(CCN(C)C)c(C(F)(F)F)cc2=O)c1F [Control compound A]	50.4	31.9%	42.6%	1.8%	56.0 mL/min/kg	830 ng·h/mL
< 7.00	> 9.00	Cc1cc(F)cc(C)c1-c1c(F)c(C(CC(=O)O)NC(=O)[C@H](CC(C)C)n2cc(CC3CN(C(C)C)C3)c(C(F)(F)F)cc2=O)c(F)c2c1CCC2 (stereo partly drawn) [Trifluoroacetate salt of compound 32-2]	220					
